Test results from US11845749B1, “Substituted pyrido[4′,3′:5,6]pyrazino[1,2-a]indoles as anticancer agents” (KING FAISAL UNIVERSITY, priority 2023, dated 2023).

Columns and labels:
[1] = tested on: MIAPaCa-2 (pancreas); assay: In vitro cytotoxic activity (MTT) assay, MIAPaCa-2; format: cell-based; details: Homo sapiens, MIA PaCa-2, cells exposed for 96 hours, read-out: IC50, 50% inhibition of cell proliferation
Procedure: (§1) Compounds 1-12 were screened for their in vitro cytotoxic activity utilizing a 3-(4,5-dimethyl-thiazol-2-yl)-2,5-diphenyltetrazolium bromide (MTT) assay against selected cancer human cell lines consisting of PC3 (prostate), HCT116 (colon), A375 (melanoma), H1299 (lung), MIAPaCa-2 (pancreas), HL60 (leukemia), MCF7 (breast), MDA-MB-231 (breast) (T. Mosmann, J. Immunol. Meth., 1983, 65, 55-63). The cells were cultured at 37° C. in RMPI1640 medium supplemented with 10% fetal bovine serum, 50 IU/mL penicillin, and 50 μg/mL streptomycin in a 5% CO2 incubator. All cells were sub-cultured 3 times/week by trypsinisation. Viable cells were seeded and allowed to adhere for 12 h before a test drug was added in 96-well plates at an initial density of 1.0×10^5 cells/mL. Tumour cell lines were separately exposed to various concentrations of the tested compounds followed by incubation at a temperature of 37° C. during 96 h inside a medium of fresh RMPI 1640. Cells were subsequently incubated at 37° C. using MTT at 0.5 mg/mL during 4 h. After removal of supernatant, formazan crystals were dissolved in isopropanol and the optical density was measured at 570 nm. CX-4945 was used as a positive control.

[2] = tested on: HCT116 (colon); assay: In vitro cytotoxic activity (MTT) assay, HCT116; format: cell-based; details: Homo sapiens, HCT-116, cells exposed for 96 hours, read-out: IC50, 50% inhibition of cell proliferation
Procedure: as §1

[3] = tested on: A375 (melanoma); assay: In vitro cytotoxic activity (MTT) assay, A375; format: cell-based; details: Homo sapiens, A-375, cells exposed for 96 hours, read-out: IC50, 50% inhibition of cell proliferation
Procedure: as §1

[4] = tested on: MCF7 (breast); assay: In vitro cytotoxic activity (MTT) assay, MCF7; format: cell-based; details: Homo sapiens, cells exposed for 96 hours, read-out: IC50, 50% inhibition of cell proliferation
Procedure: as §1

[5] = target: T1, recombinant human CK2 (Homo sapiens, UniProt P68400); assay: CK2 Kinase Assay (33P-ATP, filter plate); format: biochemical; details: final ATP concentration 15 μM, 10 min at 30° C.; read-out: protein kinase CK2 IC50
T1 construct: purchased Millipore
T1 sequence (P68400 whole entry): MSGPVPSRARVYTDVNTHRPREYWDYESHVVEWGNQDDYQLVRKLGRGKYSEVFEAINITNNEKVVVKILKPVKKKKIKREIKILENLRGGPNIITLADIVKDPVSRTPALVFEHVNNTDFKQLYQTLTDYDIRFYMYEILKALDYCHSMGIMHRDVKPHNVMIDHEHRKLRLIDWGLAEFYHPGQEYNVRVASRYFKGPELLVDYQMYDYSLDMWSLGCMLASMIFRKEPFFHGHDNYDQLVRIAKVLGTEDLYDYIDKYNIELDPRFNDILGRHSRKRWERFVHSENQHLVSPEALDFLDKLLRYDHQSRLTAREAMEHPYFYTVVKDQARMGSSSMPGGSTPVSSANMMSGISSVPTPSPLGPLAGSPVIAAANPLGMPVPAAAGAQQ
T1 sequence (P67870 whole entry partner): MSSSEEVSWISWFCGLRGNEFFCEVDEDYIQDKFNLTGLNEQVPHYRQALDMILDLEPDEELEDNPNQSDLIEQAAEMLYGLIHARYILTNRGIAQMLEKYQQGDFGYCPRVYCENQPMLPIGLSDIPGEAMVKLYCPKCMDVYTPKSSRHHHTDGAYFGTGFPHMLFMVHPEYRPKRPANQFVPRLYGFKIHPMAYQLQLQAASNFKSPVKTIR
Procedure: CK2 Kinase Assay was conducted using the protocol as described in Pierre F. et al; J. Med. Chem. 2011, 54, 635-654. The tested compounds in aqueous solution were added at a volume of 10 μL to a reaction mixture comprising 10 μL of assay dilution buffer (ADB; 20 mM MOPS, pH 7.2, 25 mM β-glycerol phosphate, 5 mM EGTA, 1 mM sodium orthovanadate, and 1 mM dithiothreitol), 10 μL of substrate peptide (RRRDDDSDDD, dissolved in ADB at a concentration of 1 mM), 10 μL of recombinant human CK2 (RRfββ-holoenzyme, 25 ng dissolved in ADB; Millipore). Reactions were initiated by the addition of 10 μL of ATP solution (90% 75 mMMgCl2, 75 μM ATP (final ATP concentration:15 μM) dissolved in ADB; 10% [γ-33P] ATP (stock 1mCi/100 μL; 3000 Ci/mmol (Perkin-Elmer) and maintained for 10 min at 30° C. The reactions were quenched with 100 μL of 0.75% phosphoric acid and then transferred to and filtered through a phosphor cellulose filter plate (Millipore). After washing each well five times with 0.75% phosphoric acid, the plate was dried under vacuum for 5 min and, following the addition of 15 μL of scintillation fluid to each well, the residual radioactivity was measured using a Wallac […]. The IC50 values were derived from eight concentrations of test inhibitors.

[6] = tested on: HL60 (leukemia); assay: In vitro cytotoxic activity (MTT) assay, HL60; format: cell-based; details: Homo sapiens, HL-60, cells exposed for 96 hours, read-out: IC50, 50% inhibition of cell proliferation
Procedure: as §1

[7] = tested on: H1299 (lung); assay: In vitro cytotoxic activity (MTT) assay, H1299; format: cell-based; details: Homo sapiens, NCI-H1299, cells exposed for 96 hours, read-out: IC50, 50% inhibition of cell proliferation
Procedure: as §1

[8] = tested on: MDA-MB-231 (breast); assay: In vitro cytotoxic activity (MTT) assay, MDA-MB-231; format: cell-based; details: Homo sapiens, cells exposed for 96 hours, read-out: IC50, 50% inhibition of cell proliferation
Procedure: as §1

[9] = tested on: PC3 (prostate); assay: In vitro cytotoxic activity (MTT) assay, PC3; format: cell-based; details: Homo sapiens, Prostate cell, cells exposed for 96 hours, read-out: IC50, 50% inhibition of cell proliferation
Procedure: as §1

SMILES: O=C(O)c1ccc2c(c1)cc1c(Nc3ccc(Cl)cc3)nc3ccncc3n12 [Compound 1, 6-((4-chlorophenyl)amino)pyrido[4′,3′:5,6]pyrazino[1,2-a]indole-9-carboxylic acid]
- IC50 [1]: 900 nM
- IC50 [2]: 1900 nM
- IC50 [3]: 2500 nM
- IC50 [4]: 7800 nM
- IC50 [5]: 12 nM
- IC50 [6]: 2800 nM
- IC50 [7]: 3100 nM
- IC50 [8]: 6100 nM
- IC50 [9]: 1600 nM
